Results taken from BindingDB's records for doi:10.1016/j.bmcl.2004.04.026 (Morphochem, 2004).
pIC50: −log10 of the molar value.

Tests used:
[1] = biological target: T1, Human immunodeficiency virus type 1 protease (Human immunodeficiency virus 1, UniProt Q72874); test: Evaluated for inhibition of Protease after resynthesis and purification
[2] = biological target: T1, Human immunodeficiency virus type 1 protease; test: Evaluated for inhibition of Protease after CLND/MS correction from the crude mixture
[3] = biological target: T1, Human immunodeficiency virus type 1 protease; test: Inhibitory concentration against Protease

pIC50 [1]	pIC50 [2]	pIC50 [3]	SMILES
5.34	5.92	4.08	C[C@@H](c1ccccc1)C1C(=O)O[C@](CCc2ccccc2)(C(=O)NCc2ccc(C(C)(C)C)cc2)C1=O (some centres not stated)
–	–	< 3.00	COc1cc(CC2C(=O)OC(C)(C(=O)NC3CC3)C2=O)cc(OC)c1OC (configuration not stated) [3-Hydroxy-2-methyl-5-oxo-4-(3,4,5-trimethoxy-benzyl)-2,5-dihydro-furan-2-carboxylic acid cyclopropylamide]
–	–	< 3.00	COc1cc(CC2C(=O)OC(C)(C(=O)NC(C)(C)C)C2=O)cc(OC)c1OC (configuration not stated) [3-Hydroxy-2-methyl-5-oxo-4-(3,4,5-trimethoxy-benzyl)-2,5-dihydro-furan-2-carboxylic acid tert-butylamide]
–	–	< 3.00	CNC1C(=O)OC(CCc2ccccc2)(C(=O)NCC2CCCO2)C1=O (configuration not stated) [3-Hydroxy-4-methylamino-5-oxo-2-phenethyl-2,5-dihydro-furan-2-carboxylic acid (tetrahydro-furan-2-ylmethyl)-amide]
–	–	< 3.00	COc1cc(CC2C(=O)OC(CCc3ccccc3)(C(=O)NCC(C)(C)C)C2=O)cc(OC)c1OC (configuration not stated) [3-Hydroxy-5-oxo-2-phenethyl-4-(3,4,5-trimethoxy-benzyl)-2,5-dihydro-furan-2-carboxylic acid (2,2-dimethyl-propyl)-amide]
